# Read-outs that look alike come from different tables or passages of the source.
# Assays:
# [1] = cited from earlier work
# [2] = Plasma Cmin and Cmax of PI/NNRTI in HIV-positive women on cART (LC-MS/MS); format: in vivo, human; conditions: for Cmin Intra-patient CV median (IQR) / Cmax median ratio to historical population mean (IQR) / Cmax n (%) >1.5 Historical pop mean (percent of participants) / Cmin median ratio to historical population mean (IQR) / Cmin n (%) >1.5 historical pop Mean (percent of participants) / Cmax Inter-patient CV / Cmin Inter-patient CV / Cmin Study participants median (IQR) / Cmin Mean (SD) / Cmax at 2 h / Cmax / Cmax at 5 h / Cmax at 3 h: HIV-positive women; for Cmin Intra-patient CV median (IQR): 3 weekly visits; for Cmax Inter-patient CV: from individual median Cmax; for Cmin Inter-patient CV: from individual median Cmin; for Cmin Study participants median (IQR) / Cmin Mean (SD) / Cmax at 2 h / Cmax / Cmax at 5 h / Cmax at 3 h: plasma; for Cmin Study participants median (IQR) / Cmin Mean (SD): pre-dose, in ng/mL; for inter-patient variability (CV) for both Cmin and Cmax, in words / intra-patient variability for Cmax, in words / intra-patient variability for Cmin, in words: compared among the regimens; for inter-patient variability (CV) for both Cmin and Cmax, in words / intra-patient variability for Cmax, in words: nevirapine and lopinavir/ritonavir as BID; for intra-patient variability for Cmin, in words: nevirapine as BID; for Cmax at 2 h / Cmax / Cmax at 5 h / Cmax at 3 h: female, human, oral; for Cmax at 2 h: 2 hours post-dose; for Cmax at 5 h: 600 mg, 5 hours post-dose; for Cmax at 3 h: 3 hours post-dose
# Procedure: Patients were asked to fast from midnight of the previous night. One hour before their scheduled morning dose the pre-dose blood collection was drawn (Cmin t) (alternative arrangements were made if the patient took their drugs in the evening). […] Concentrations of the PIs and the NNRTIs in plasma were measured simultaneously by sensitive and selective, validated high-performance liquid chromatography coupled to tandem mass-spectroscopy (LC-MS/MS). All samples were analyzed at the pharmacokinetic laboratory at the Ottawa Hospital Research Institute in Ottawa, Canada. The PK endpoints for each patient were determined by taking the median of the three weekly values for the Cmin and Cmax. The rationale for measuring drug levels at three separate time points was that there is potentially intra-individual variability in drug levels, especially for PIs. Using the median value for the endpoints eliminated outliers. The three drug level measurements allowed for the calculation of intra-patient variability. […] Next, for each subject the ratio of their median Cmin and Cmax for their main PI or NNRTI to this published drug level was calculated and used as the primary outcome as previously reported by Burger et al. […] Inter-patient variability of Cmin and Cmax for each antiretroviral drug was assessed by calculating the coefficient of variation (CV) using each individual’s median Cmin and Cmax. […] These values are summarized using median and IQR of the individual CVs. […] Finally, linear regression models were fit to assess correlates of the square root-transformed Cmin and Cmax ratios. […] The regression models included indicator variables to account for the different antiretroviral medications and each potential correlate was included separately in an adjusted model. Statistical analyses were performed using SAS Version 9.2 (SAS Institute, Cary, North Carolina, USA).
smiles,measurement,setting,value
CC(C)(C)NC(=O)[C@@H]1C[C@@H]2CCCC[C@@H]2CN1C[C@@H](O)[C@H](Cc1ccccc1)NC(=O)[C@H](CC(N)=O)NC(=O)c1ccc2ccccc2n1 [saquinavir],serum levels in women versus men,[1]; in vivo,significantly higher in women than in men
"Cc1ccnc2c1NC(=O)c1cccnc1N2C1CC1 [Nevirapine, nevirapine]",Cmin Intra-patient CV median (IQR),[2]; 200 BID,13.9 (10.2-27.8)
same,Cmin Intra-patient CV median (IQR),[2]; 400 QD,21.3 (12.1-44.9)
same,Cmax median ratio to historical population mean (IQR),[2]; 200 BID,0.96 (0.84-1.37)
same,Cmax n (%) >1.5 Historical pop mean (percent of participants),[2]; 200 BID,2 (18.2%)
same,Cmin median ratio to historical population mean (IQR),[2]; 200 BID,1.41 (0.91-1.93)
same,Cmin n (%) >1.5 historical pop Mean (percent of participants),[2]; 200 BID,5 (45.5%)
same,Cmax median ratio to historical population mean (IQR),[2]; 400 QD,0.96 (0.72-1.40)
same,Cmax n (%) >1.5 Historical pop mean (percent of participants),[2]; 400 QD,1 (12.5%)
same,Cmin median ratio to historical population mean (IQR),[2]; 400 QD,2.08 (0.90-2.53)
same,Cmin n (%) >1.5 historical pop Mean (percent of participants),[2]; 400 QD,5 (62.5%)
same,Cmax median ratio to historical population mean (IQR),[2]; all doses of the drug pooled,0.96 (0.81-1.37)
same,Cmax n (%) >1.5 Historical pop mean (percent of participants),[2]; all doses of the drug pooled,3 (15.8%)
same,Cmin median ratio to historical population mean (IQR),[2]; all doses of the drug pooled,1.62 (0.91-2.32)
same,Cmin n (%) >1.5 historical pop Mean (percent of participants),[2]; all doses of the drug pooled,10 (52.6%)
same,Cmax Inter-patient CV,[2]; 200 BID,37.8%
same,Cmax Inter-patient CV,[2]; 400 QD,39.9%
same,Cmin Inter-patient CV,[2]; 200 BID,45.4%
same,Cmin Inter-patient CV,[2]; 400 QD,57.0%
same,Cmin Study participants median (IQR),[2]; 200 mg BID,5270 (3380–7190)
same,Cmin Study participants median (IQR),[2]; 400 mg QD,5995 (2590–7275)
same,Cmin Mean (SD),[2]; 200 BID,5693.6 (2586.8)
same,Cmin Mean (SD),[2]; 400 QD,5027.9 (2867.2)
same,"Cmin ratio to published population mean, in words",[2]; compared among the antiretrovirals,highest ratios
same,"inter-patient variability (CV) for both Cmin and Cmax, in words",[2],least inter-patient variability
same,"intra-patient variability for Cmax, in words",[2],lowest intra-patient variability
same,"intra-patient variability for Cmin, in words",[2],lowest intra-patient variability
same,Cmax at 2 h,"[2]; 200 mg, 200 mg BID, read-out: Cmax Study participants median (IQR)",5510 ng/mL
same,Cmax at 2 h,"[2]; 200 mg, 200 BID, read-out: Cmax Mean (SD)",6490 ng/mL
same,Cmax at 2 h,"[2]; 400 mg, 400 mg QD, read-out: Cmax Study participants median (IQR)",6400 ng/mL
same,Cmax at 2 h,"[2]; 400 mg, 400 QD, read-out: Cmax Mean (SD)",6920 ng/mL
same,exposure in pregnant women,[1]; in vivo,lower
same,serum levels in women,[1]; in vivo,higher
"Cc1cccc(C)c1OCC(=O)N[C@@H](Cc1ccccc1)[C@@H](O)C[C@H](Cc1ccccc1)NC(=O)[C@H](C(C)C)N1CCCNC1=O [Lopinavir boosted with ritonavir, lopinavir]",Cmin Intra-patient CV median (IQR),[2]; 400 BID boosted with ritonavir,23.8 (12.8-75.8)
same,Cmin Intra-patient CV median (IQR),[2]; 800 QD boosted with ritonavir,63.4 (35.2- 115)
same,Cmax n (%) >1.5 Historical pop mean (percent of participants),[2]; 400 BID boosted with ritonavir,0 (0.0%)
same,Cmin n (%) >1.5 historical pop Mean (percent of participants),[2]; 400 BID boosted with ritonavir,3 (18.8%)
same,Cmax n (%) >1.5 Historical pop mean (percent of participants),[2]; 800 QD boosted with ritonavir,0 (0.0%)
same,Cmin n (%) >1.5 historical pop Mean (percent of participants),[2]; 800 QD boosted with ritonavir,3 (75.0%)
same,Cmax n (%) >1.5 Historical pop mean (percent of participants),[2]; all doses of the drug pooled,0 (0.0%)
same,Cmin n (%) >1.5 historical pop Mean (percent of participants),[2]; all doses of the drug pooled,6 (30.0%)
same,Cmax Inter-patient CV,[2]; 400 BID boosted with ritonavir,32.8%
same,Cmax Inter-patient CV,[2]; 800 QD boosted with ritonavir,39.8%
same,Cmin Inter-patient CV,[2]; 400 BID boosted with ritonavir,44.7%
same,Cmin Inter-patient CV,[2]; 800 QD boosted with ritonavir,72.5%
same,Cmin Study participants median (IQR),[2]; 400 mg BID with ritonavir 100 mg,6660 (4360–7710)
same,Cmin Study participants median (IQR),[2]; 800 mg QD with ritonavir 200 mg,6445 (2452–8260)
same,Cmin Mean (SD),[2]; 400 BID boosted with ritonavir,6370.0 (2846.4)
same,Cmin Mean (SD),[2]; 800 QD boosted with ritonavir,5356.2 (3882.3)
same,"inter-patient variability (CV) for both Cmin and Cmax, in words",[2],least inter-patient variability
same,"intra-patient variability for Cmax, in words",[2],lowest intra-patient variability
same,Cmax,"[2]; 800 mg QD with ritonavir 200 mg, read-out: Cmax Study participants median (IQR)",11700 ng/mL
same,Cmax,"[2]; 800 QD boosted with ritonavir, read-out: Cmax Mean (SD)",11200 ng/mL
same,increase in AUC in women,[1]; in vivo,approximately 20%
CC(C)CN(C[C@@H](O)[C@H](Cc1ccccc1)NC(=O)O[C@H]1CO[C@H]2OCC[C@H]21)S(=O)(=O)c1ccc(N)cc1 [darunavir],increase in AUC in women,"[1]; women versus men, product monographs",approximately 20%
"O=C1Nc2ccc(Cl)cc2[C@@](C#CC2CC2)(C(F)(F)F)O1 [Efavirenz, efavirenz]",Cmin Intra-patient CV median (IQR),[2]; 600 QD,17.7 (10.5-25.1)
same,Cmax median ratio to historical population mean (IQR),[2]; 600 QD,0.79 (0.57-1.27)
same,Cmax n (%) >1.5 Historical pop mean (percent of participants),[2]; 600 QD,4 (25.0%)
same,Cmin median ratio to historical population mean (IQR),[2]; 600 QD,0.95 (0.67-1.95)
same,Cmin n (%) >1.5 historical pop Mean (percent of participants),[2]; 600 QD,6 (37.5%)
same,Cmax Inter-patient CV,[2]; 600 QD,52.4%
same,Cmin Inter-patient CV,[2]; 600 QD,55.0%
same,Cmin Study participants median (IQR),[2]; 600 mg QD,1680 (1180–3450)
same,Cmin Mean (SD),[2]; 600 QD,2196.9 (1209.2)
same,"intra-patient variability for Cmax, in words",[2],lowest intra-patient variability
same,"intra-patient variability for Cmin, in words",[2],lowest intra-patient variability
same,Cmax at 5 h,"[2]; 600 mg QD, read-out: Cmax Study participants median (IQR)",3240 ng/mL
same,Cmax at 5 h,"[2]; 600 QD, read-out: Cmax Mean (SD)",3930 ng/mL
same,serum levels in women,[1]; in vivo,higher
"COC(=O)N[C@H](C(=O)N[C@@H](Cc1ccccc1)[C@@H](O)CN(Cc1ccc(-c2ccccn2)cc1)NC(=O)[C@@H](NC(=O)OC)C(C)(C)C)C(C)(C)C [Atazanavir boosted with ritonavir, atazanavir]",Cmin Intra-patient CV median (IQR),[2]; 300 QD boosted with ritonavir,26.3 (15.6-56.1)
same,Cmax median ratio to historical population mean (IQR),[2]; 300 QD boosted with ritonavir,0.66 (0.51-0.85)
same,Cmax n (%) >1.5 Historical pop mean (percent of participants),[2]; 300 QD boosted with ritonavir,0 (0.0%)
same,Cmin median ratio to historical population mean (IQR),[2]; 300 QD boosted with ritonavir,0.97 (0.77-1.42)
same,Cmin n (%) >1.5 historical pop Mean (percent of participants),[2]; 300 QD boosted with ritonavir,4 (22.2%)
same,Cmax Inter-patient CV,[2]; 300 QD boosted with ritonavir,41.4%
same,Cmin Inter-patient CV,[2]; 300 QD boosted with ritonavir,65.6%
same,Cmin Study participants median (IQR),[2]; 300 mg QD with ritonavir 100 mg,835 (663–1220)
same,Cmin Mean (SD),[2]; 300 QD boosted with ritonavir,1065.6 (699.2)
same,Cmax at 3 h,"[2]; 300 mg QD with ritonavir 100 mg, read-out: Cmax Study participants median (IQR)",3430 ng/mL
same,Cmax at 3 h,"[2]; 300 QD boosted with ritonavir, read-out: Cmax Mean (SD)",3530 ng/mL
